Data as given in patent EP0930067A2, “MMP inhibitors for the treatment of ocular angiogenesis” (Pfizer Products Inc., priority 1997, dated 1999).

Test system: angiogenesis
Test: Inhibition of angiogenesis: in vivo rat model, pellet with angiogenic material (VEGF) and MMP inhibitor, corneal neovascularization scored after one week
Settings: pellet implant
Procedure: Inhibition of Angiogenesis
The activity of MMP inhibitors, preferably MMP-2 or MMP-9 inhibitors, for inhibiting angiogenesis can be determined according to the following in vivo rat model. A 10µg pellet containing an angiogenic material, such as vascular endothelial growth factor (VEGF) and a matrix metalloproteinase inhibitor or placebo, is implanted intraorbitally. After one week the eyes are removed and the degree of inhibition of angiogenesis is determined qualitatively. Inhibitors with IC50's of less than 10nm reduced angiogenesis. […]

Row | SMILES | % Response (10ng + VEGF) | Corneal Neovascularization (#Positive Response/#Response) (10ng + VEGF) | % Response (25ng + VEGF) | Corneal Neovascularization (#Positive Response/#Response) (25ng + VEGF) | % Response (50ng + VEGF) | Corneal Neovascularization (#Positive Response/#Response) (50ng + VEGF) | % Response (100ng + VEGF) | Corneal Neovascularization (#Positive Response/#Response) (100ng + VEGF)
1 | O=C(O)CCN(C1(C(=O)NO)CCCC1)S(=O)(=O)c1ccc(Oc2ccc(F)cc2)cc1 [3-[[4-(4-Fluoro-phenoxy)-benzenesulfonyl]-(1-hydroxycarbamoyl-cyclopentyl)-amino]-propionic acid] | 25% | 1/4 | 17% | 1/6 | 0% | 0/5 | 0% | 0/5
2 | CC(C)(NS(=O)(=O)c1ccc(Oc2ccc(F)cc2)cc1)C(=O)NO [2-[4-(4-Fluoro-phenoxy)-benzenesulfonylamino]-N-hydroxy-2-methyl-propionamide] | 20% | 1/5 | 17% | 1/6 | 0% | 0/5 | 0% | 0/5
3 | O=C(NO)C1C2CCC(O2)C1S(=O)(=O)c1ccc(Oc2ccccc2)cc1 (stereo not drawn) [3-(4-Phenoxy-benzenesulfonyl)-7-oxa-bicyclo[2.2.1]heptane-2-carboxylic acid hydroxyamide] | 25% | 4/4 | 60% | 3/5 | 40% | 2/5 | 20% | 1/5
